Measured values taken from patent US20250333377A1, “SOLID FORM OF NAPHTHYLAMINE MITOPHAGY INDUCER, AND PREPARATION METHOD THEREFOR, PHARMACEUTICAL COMPOSITION THEREOF AND USE THEREOF” (HANGZHOU PHECDAMED CO., LTD., priority 2023, published 2025).

Columns and labels:
[1] = Crystal form conversion (heat treatment, suspension competition test, DSC analysis); format: physicochemical; conditions: for Crystal form conversion / relative stability in suspension competition test: equal amounts mixed, RT/50, magnetic stirring ~1000 rpm, about 20 hours
Source text: The mutual conversion relationship among the A, B, C, D crystal forms of the sodium salt is further studied in this embodiment by heat treatment under nitrogen protection and suspension competition test.
However, the methods of heating, suspension pulping as well as grinding can not study the thermodynamic conversion relationship between crystal form A and crystal form D. In order to further study the thermodynamic conversion relationship of crystal form A and crystal form D, analyzed from the DSC pattern, the DSC of crystal form A is shown in FIG. 2, and the DSC of crystal form D is shown in FIG. 11, the melting point of crystal form A is higher than that of crystal form D, whereas the enthalpy of melting of crystal form A is much lower than that of crystal form D. It may be judged from the thermodynamic stability relationship table that if TA>TD, ΔHf, A>ΔHf, D, crystal form A and D is a univariate relationship, crystal form A is stable, if TA>TD, ΔHf, A<ΔHf, D, crystal forms A and D are reciprocal relationships, if the temperature is higher than the transcrystallization temperature, crystal form A is stable, and if the temperature is lower than the transcrystallization temperature, crystal form D is stable.

[2] = Hygroscopicity (vapor sorption analyser, DVS); format: physicochemical; conditions: for Percentage weight gain by moisture absorption: 90% RH, 25° C.; for Hygroscopicity (in words): according to Table 7, 90% RH
Experimental: Single crystalline sample of compound TJ01-013 is tested using a Waters vaporsorption analyser. Taking a dry weighing tray, and laying a single sample of crystal form flat in the weighing tray, and the volume of the loaded samples is about ⅓ to ⅔ of that of the weighing tray. Instrument parameters are set as follows: temperature: 25° C.; equilibrium: dm/dt=0.01%/min (minimum time: 10 minutes, and maximum time: 180 minutes); drying: drying 120 minutes under 0% RH; RH (%) testing gradient: 10%; RH (%) test gradient range: 0%-90%-0%.

Row | Structure (SMILES) | Percentage weight gain by moisture absorption [2] | Hygroscopicity (in words) [2] | also measured
1 | O=C(O)C[S+]([O-])c1cc(NS(=O)(=O)c2ccc(Br)cc2)c2ccccc2c1O (stereo not drawn) [Embodiment 1] |  |  | Crystal form conversion / relative stability in suspension competition test ([1]; listed as crystal form A): more stable than crystal form B, C
2 | O=C(O)C[S+]([O-])c1cc(NS(=O)(=O)c2ccc(Br)cc2)c2ccccc2c1O (stereo not drawn) [Embodiment 2] |  |  | Crystal form conversion / relative stability in suspension competition test ([1]; listed as crystal form B): able to be converted into crystal form A, D; Crystal form conversion on heat treatment ([1]; heating to 106° C. and then cooling to room temperature, nitrogen protection): converted into crystal form C
3 | O=C(O)C[S+]([O-])c1cc(NS(=O)(=O)c2ccc(Br)cc2)c2ccccc2c1O (stereo not drawn) [Embodiment 3] |  |  | Crystal form conversion / relative stability in suspension competition test ([1]; listed as crystal form C): able to be converted into crystal form A, D
4 | O=C(O)C[S+]([O-])c1cc(NS(=O)(=O)c2ccc(Br)cc2)c2ccccc2c1O (stereo not drawn) [Embodiment 5] | 2.655% | slightly hygroscopic | 
5 | O=C(O)C[S+]([O-])c1cc(NS(=O)(=O)c2ccc(Br)cc2)c2ccccc2c1O (stereo not drawn) [Embodiment 6] | 7.275% |  | 
6 | O=C(O)C[S+]([O-])c1cc(NS(=O)(=O)c2ccc(Br)cc2)c2ccccc2c1O (stereo not drawn) [Embodiment 7] | 2.313% | slightly hygroscopic | 
7 | O=C(O)C[S+]([O-])c1cc(NS(=O)(=O)c2ccc(Br)cc2)c2ccccc2c1O (stereo not drawn) [Embodiment 9] | 0.7884% | slightly hygroscopic | 
8 | O=C(O)C[S+]([O-])c1cc(NS(=O)(=O)c2ccc(Br)cc2)c2ccccc2c1O (stereo not drawn) [Embodiment 10] | 0.2033% | slightly hygroscopic | 
9 | O=C(O)C[S+]([O-])c1cc(NS(=O)(=O)c2ccc(Br)cc2)c2ccccc2c1O (stereo not drawn) [Embodiment 11] | 1.897% | slightly hygroscopic | 
10 | O=C(O)C[S+]([O-])c1cc(NS(=O)(=O)c2ccc(Br)cc2)c2ccccc2c1O (stereo not drawn) [Embodiment 12] | 6.026% |  | 
11 | O=C(O)C[S+]([O-])c1cc(NS(=O)(=O)c2ccc(Br)cc2)c2ccccc2c1O (stereo not drawn) [Embodiment 13] | 0.439% | slightly hygroscopic | 
